Measurements as given in article PMC9374667 (Communications Biology, 2022).
Where “and” joins values, the source holds several entries; their conditions need not be identical. Identical values can stand only once.

Assays:
TBK1 [1] = molecular target: T1, TBK1 (Mus musculus, UniProt Q9WUN2); experiment: TBK1 activity assay in eWAT; format: in vivo, mice; set-up: The adipose tissue was ultrasound-crushed in PBS buffer solution (1:9 w/v) to prepare the tissue homogenate; from tissue; host or cells: epididymal white adipose tissue (eWAT) and brown adipose tissue (BAT) of C57BLKS WT and db/db mice; conditions: for the expression of TBK1 in eWAT of db/db mice: Figure 6c, individual values
T1 sequence (Q9WUN2 1-729): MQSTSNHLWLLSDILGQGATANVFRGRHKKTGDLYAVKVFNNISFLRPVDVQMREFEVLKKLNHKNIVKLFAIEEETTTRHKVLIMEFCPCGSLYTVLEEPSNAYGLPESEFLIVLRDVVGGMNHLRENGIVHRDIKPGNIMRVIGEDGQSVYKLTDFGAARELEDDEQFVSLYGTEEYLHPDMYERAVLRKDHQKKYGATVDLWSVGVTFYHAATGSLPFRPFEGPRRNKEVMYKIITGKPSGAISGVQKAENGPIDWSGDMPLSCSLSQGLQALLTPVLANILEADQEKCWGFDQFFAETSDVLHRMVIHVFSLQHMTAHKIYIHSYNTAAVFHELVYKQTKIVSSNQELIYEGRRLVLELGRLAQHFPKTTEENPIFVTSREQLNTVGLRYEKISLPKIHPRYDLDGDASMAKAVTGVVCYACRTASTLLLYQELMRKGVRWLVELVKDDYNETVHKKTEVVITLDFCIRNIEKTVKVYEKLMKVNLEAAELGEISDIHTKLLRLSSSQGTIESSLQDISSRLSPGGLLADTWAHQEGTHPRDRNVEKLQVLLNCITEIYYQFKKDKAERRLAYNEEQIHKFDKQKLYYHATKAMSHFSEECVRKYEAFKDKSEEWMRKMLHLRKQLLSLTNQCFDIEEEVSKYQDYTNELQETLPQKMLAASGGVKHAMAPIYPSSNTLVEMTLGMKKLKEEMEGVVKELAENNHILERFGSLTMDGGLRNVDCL
Experimental: (§1) The adipose tissue was ultrasound-crushed in PBS buffer solution (1:9 w/v) to prepare the tissue homogenate. The tissue homogenate was centrifuged at 5000 × g for 10 min, and the supernatant was taken for detection. Briefly, samples or standards were added to the microplates pre-coated with IKKε antibody or TBK1 antibody. Then horseradish peroxidase (HRP) labeled antibody was added and incubated at 37 °C for 60 min. After thorough washing, the 3,3′,5,5′-tetramethylbenzidine (TMB) substrate was used for color development, and the absorbance (OD value) was determined at 450 nm.

IKKε = molecular target: T2, IKKε (Mus musculus, UniProt Q9R0T8); experiment: IKKε activity assay in eWAT; format: in vivo, mice; set-up: The adipose tissue was ultrasound-crushed in PBS buffer solution (1:9 w/v) to prepare the tissue homogenate; from tissue; host or cells: epididymal white adipose tissue (eWAT) and brown adipose tissue (BAT) of C57BLKS WT and db/db mice; conditions: for the expression of IKKε in eWAT of db/db mice: Figure 6b, individual values
T2 sequence (Q9R0T8 1-717): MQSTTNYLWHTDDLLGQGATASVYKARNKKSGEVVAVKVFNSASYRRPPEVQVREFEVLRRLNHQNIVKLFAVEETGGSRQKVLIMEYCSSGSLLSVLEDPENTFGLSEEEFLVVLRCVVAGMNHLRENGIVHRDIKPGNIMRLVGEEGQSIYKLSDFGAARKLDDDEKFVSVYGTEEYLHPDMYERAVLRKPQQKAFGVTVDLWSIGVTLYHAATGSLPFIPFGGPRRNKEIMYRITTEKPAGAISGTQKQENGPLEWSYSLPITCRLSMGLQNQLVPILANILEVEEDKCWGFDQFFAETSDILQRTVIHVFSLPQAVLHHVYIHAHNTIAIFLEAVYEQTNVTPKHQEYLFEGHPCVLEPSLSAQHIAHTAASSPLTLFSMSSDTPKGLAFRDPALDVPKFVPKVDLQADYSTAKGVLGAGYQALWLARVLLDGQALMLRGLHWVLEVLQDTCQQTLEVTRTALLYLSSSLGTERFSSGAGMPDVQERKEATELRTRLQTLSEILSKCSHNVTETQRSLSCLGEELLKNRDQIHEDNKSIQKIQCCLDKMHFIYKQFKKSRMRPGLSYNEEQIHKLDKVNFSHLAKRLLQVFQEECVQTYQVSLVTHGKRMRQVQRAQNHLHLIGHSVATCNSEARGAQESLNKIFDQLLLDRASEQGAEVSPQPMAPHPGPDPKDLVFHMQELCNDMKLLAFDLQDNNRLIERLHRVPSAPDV
Experimental: as §1

TBK1 [2] = molecular target: T1, TBK1; experiment: TBK1 kinase activity in TNF-α induced 3T3-L1 adipocytes; format: cell-based, Murine; set-up: host or cells: differentiated 3T3-L1 adipocytes (Lipofectamine 2000); TBK1 kinase activity: unit not given here; conditions: for TBK1 kinase activity: Figure 7g, replicates
db/db mice = experiment: Spontaneous motor activity (CLAMS, infrared beam breaks); format: in vivo; conditions: BBR 150mg/kg, individual mice 1-6
Experimental: At week 5 of treatment, basal metabolic parameters of mice were measured using the Comprehensive Lab Animal Monitoring System (CLAMS, Columbus Instruments, Columbus, OH). […] The number of times the infrared beams were broken along the X- or Y-axis was used to measure the dynamic activity of mice. The respiratory exchange rate (RER) was calculated using classical Lusk theory and equations RER = VCO2/VO2.

[3] = db/db mice, both doses of BJ (75 and 150 mg/kg)

## CC(C)Cc1ccc(C(C)C(=O)[O-])cc1.COc1ccc2cc3[n+](cc2c1OC)CCc1cc2c(cc1-3)OCO2.O.O.O.O [BJ, berberine-ibuprofen]
TBK1 [1]; db/db+BJ 75mg/kg
  the expression of TBK1 in eWAT of db/db mice: 0.538 U/g and 0.576 U/g and 0.532 U/g and 0.587 U/g and 0.53 U/g
TBK1 [1]; db/db+BJ 150mg/kg
  the expression of TBK1 in eWAT of db/db mice: 0.413 U/g and 0.391 U/g and 0.35 U/g and 0.361 U/g and 0.451 U/g and 0.379 U/g
TBK1 [1]; [3]
  TBK1 kinase activity in eWAT: significantly reduced
IKKε; db/db+BJ 75mg/kg
  the expression of IKKε in eWAT of db/db mice: 0.731 U/g and 0.653 U/g and 0.634 U/g and 0.668 U/g and 0.673 U/g and 0.708 U/g
IKKε; db/db+BJ 150mg/kg
  the expression of IKKε in eWAT of db/db mice: 0.443 U/g and 0.517 U/g and 0.416 U/g and 0.438 U/g and 0.466 U/g and 0.49 U/g
IKKε; [3]
  IKKε kinase activity in eWAT: significantly reduced
TBK1 [2]; TNF-α(50ng/ml)+3μM BJ
  TBK1 kinase activity: 30.9473 and 32.9827 and 24.4703 and 29.2741 and 25.0999 and 33.9831
TBK1 [2]; TNF-α(50ng/ml)+10μM BJ
  TBK1 kinase activity: 22.2193 and 16.8634 and 20.5634 and 20.4771 and 22.3055 and 16.9152
TBK1 [2]; TNF-α induced 3T3-L1 adipocytes, BJ treatment for 24 h
  TBK1 expression level / kinase activity: markedly decreased

## COc1ccc2cc3[n+](cc2c1OC)CCc1cc2c(cc1-3)OCO2 [BBR, Berberine chloride dihydrate]
db/db mice; TIME 09:00:00
  Spontaneous motor activity (Figure 3j): 453.5 and 1366 and 855.5 and 150 and 210.5 and 798
db/db mice; TIME 10:00:00
  Spontaneous motor activity (Figure 3j): 578.5 and 328 and 167.5 and 335.5 and 115 and 382
db/db mice; TIME 11:00:00
  Spontaneous motor activity (Figure 3j): 144.5 and 288.5 and 281.5 and 646 and 886.5 and 449
db/db mice; TIME 12:00:00
  Spontaneous motor activity (Figure 3j): 559 and 373.5 and 450.5 and 378.5 and 424.5 and 29.5
db/db mice; TIME 13:00:00
  Spontaneous motor activity (Figure 3j): 620.5 and 553.5 and 835.5 and 411 and 498 and 330
db/db mice; TIME 14:00:00
  Spontaneous motor activity (Figure 3j): 823.5 and 171 and 498 and 447 and 397.5 and 455
db/db mice; TIME 15:00:00
  Spontaneous motor activity (Figure 3j): 870 and 677.5 and 611.5 and 326 and 849.5 and 246
db/db mice; TIME 16:00:00
  Spontaneous motor activity (Figure 3j): 482.5 and 647.5 and 365.5 and 416.5 and 803.5 and 105
db/db mice; TIME 17:00:00
  Spontaneous motor activity (Figure 3j): 814 and 1029.5 and 535.5 and 427.5 and 177.5 and 328
db/db mice; TIME 18:00:00
  Spontaneous motor activity (Figure 3j): 694 and 351 and 1055.5 and 323.5 and 1331.5 and 362
db/db mice; TIME 19:00:00
  Spontaneous motor activity (Figure 3j): 242 and 551.5 and 453.5 and 327.5 and 706.5 and 367
db/db mice; TIME 20:00:00
  Spontaneous motor activity (Figure 3j): 34.5 and 1152.5 and 475 and 298.5 and 432.5 and 477
db/db mice; TIME 21:00:00
  Spontaneous motor activity (Figure 3j): 863 and 737 and 845.5 and 99.5 and 506 and 314
db/db mice; TIME 22:00:00
  Spontaneous motor activity (Figure 3j): 320.5 and 467 and 701 and 142 and 156 and 371.5
db/db mice; TIME 23:00:00
  Spontaneous motor activity (Figure 3j): 428.5 and 928 and 390.5 and 869 and 897 and 315.5
db/db mice; TIME 1900-01-01 01:00:00
  Spontaneous motor activity (Figure 3j): 479.5 and 494 and 426 and 899
db/db mice; TIME 1900-01-01
  Spontaneous motor activity (Figure 3j): 542.5 and 374 and 305.5 and 238 and 658 and 526
